Measurements reported in doi:10.1101/2022.11.24.517821v4 (biorxiv, 2022).
Where two headings read alike, the source gives them in different places.

What was measured:
TAS2R14 [1] = molecular target: T1, TAS2R14 (Homo sapiens, UniProt Q9NYV8); test: IP-One HTRF IP1 accumulation, HEK293T with Galpha-qi5; assay type: cell-based
T1 sequence (Q9NYV8 1-317): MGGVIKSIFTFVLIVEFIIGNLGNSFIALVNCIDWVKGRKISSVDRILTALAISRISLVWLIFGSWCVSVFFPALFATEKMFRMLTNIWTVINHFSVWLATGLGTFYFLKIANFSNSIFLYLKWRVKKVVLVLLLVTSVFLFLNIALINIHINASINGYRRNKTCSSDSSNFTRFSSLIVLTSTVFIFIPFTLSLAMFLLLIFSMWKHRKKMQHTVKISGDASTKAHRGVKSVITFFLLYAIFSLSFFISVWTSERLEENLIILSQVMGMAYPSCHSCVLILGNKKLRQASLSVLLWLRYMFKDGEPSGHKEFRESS

TAS2R14 [2] = molecular target: T1, TAS2R14; test: as above; assay type: cell-based; conditions: antagonist mode, […] min pre-incubation, against […] flufenamic acid, […] °C
TAS2R14 [3] = molecular target: T1, TAS2R14; test: cell-based; design: species or system HEK293T
TAS2R14 [4] = molecular target: T1, TAS2R14; test: cell-based; design: species or system HEK293T; conditions: HEK-293T, read-out: Emax[%flu acid]

SMILES | IC50 (TAS2R14 [1]) [nM] | IC50 (TAS2R14 [2]) | EC50 (TAS2R14 [3]) [nM] | Emax (TAS2R14 [4]) [%]
O=C(Nc1ccccc1C(=O)O)c1ccc(OC(F)(F)F)cc1 [LF1] | 6800 ± 3200 | – | – | –
Cc1[nH]nc(C(=O)Nc2ccc(C3CCC(F)(F)CC3)cc2)c1C(=O)O [LF14] | 22000 ± 16000 | – | – | –
O=C(c1cc(O)cc(C(F)(F)F)c1)N1CC(c2ccccc2)C1CO (centres unmarked) [LF22] | 7200 ± 3000 | – | – | –
O=C(O)c1cc(I)ccc1Nc1cccc(C(F)(F)F)c1 [LW118] | – | A derivative of flufenamic acid (LW118) | – | –
NS(=O)(=O)c1ccccc1Nc1cccc(OCc2ccccc2)c1 [lw19a] | – | – | 65000 ± 25000 | 100
COC(=O)c1ccccc1Nc1cccc(C(F)(F)F)c1 [lw50] | – | – | 5300 ± 3200 | 47 ± 23
O=C(O)c1ccccc1Nc1cccc(OC(F)(F)F)c1 [lw057] | – | – | 250 ± 60 | 101 ± 5
FC(F)(F)Oc1cccc(Nc2ccccc2-c2nnn[nH]2)c1 [lw070] | – | – | 190 ± 70 | 72 ± 13
FS(F)(F)(F)(F)c1cccc(Nc2ccccc2-c2nnn[nH]2)c1 [lw071] | – | – | 230 ± 90 | 48 ± 3
Clc1cccc(Nc2ccccc2-c2nnn[nH]2)c1 [lw072] | – | – | 170 ± 70 | 67 ± 6
O=C(O)c1ccccc1Nc1ccc(Cl)c(C(F)(F)F)c1 [lw076] | – | – | 200 ± 50 | 67 ± 9
COc1cc(Nc2ccccc2C(=O)O)cc(C(F)(F)F)c1 [lw077] | – | – | 200 ± 60 | 87 ± 5
FC(F)Oc1cccc(Nc2ccccc2-c2nnn[nH]2)c1 [lw083] | – | – | 200 ± 20 | 77 ± 5
FC(F)(F)c1cc(Nc2ccccc2-c2nnn[nH]2)ccc1Cl [lw084] | – | – | 190 ± 20 | 59 ± 1
COc1cc(Nc2ccccc2-c2nnn[nH]2)cc(C(F)(F)F)c1 [lw085] | – | – | 80 ± 20 | 98 ± 3
Cc1c(Nc2ccccc2-c2nnn[nH]2)cccc1C(F)(F)F [lw086] | – | – | 290 ± 50 | 70 ± 4
O=C(O)c1ccccc1Nc1ccc(N2CCOCC2)c(C(F)(F)F)c1 [lw101] | – | – | 2000 ± 490 | 44 ± 5
O=C(O)c1ccccc1Nc1cc(OC2CC2)cc(C(F)(F)F)c1 [lw103] | – | – | 310 ± 50 | 64 ± 3
O=C1COc2c(cc(C(F)(F)F)cc2Nc2ccccc2C(=O)O)N1 [lw104] | – | – | 1800 ± 180 | 74 ± 8

SMILES | IC50 (TAS2R14 [1]) [nM] | IC50 (TAS2R14 [2]) | EC50 (TAS2R14 [3]) [nM] | Emax (TAS2R14 [4]) [%]
O=C(O)c1ccccc1Nc1cc(OCc2ccccc2)cc(C(F)(F)F)c1 [lw105] | – | – | 1700 ± 350 | 66 ± 14
Cc1ccc(C(F)(F)F)cc1Nc1ccccc1-c1nnn[nH]1 [lw113] | – | – | 310 ± 92 | 90 ± 5
FC(F)(F)c1cc(Nc2ccccc2-c2nnn[nH]2)ccc1N1CCOCC1 [lw114] | – | – | 190 ± 20 | 50 ± 7
O=C(O)c1ccccc1Nc1cc([N+](=O)O)cc(C(F)(F)F)c1 [lw119] | – | – | 190 ± 50 | 67 ± 8
Cc1cn(-c2cc(Nc3ccccc3C(=O)O)cc(C(F)(F)F)c2)cn1 [lw122] | – | – | 3700 ± 1200 | 51 ± 11
COc1cc(Nc2ccc(Cl)cc2-c2nnn[nH]2)cc(C(F)(F)F)c1 [lw128] | – | – | 580 ± 180 | 26 ± 4
O=[N+](O)c1cc(Nc2ccccc2-c2nnn[nH]2)cc(C(F)(F)F)c1 [lw130] | – | – | 730 ± 150 | 80 ± 8
COC(=O)c1cc(Nc2ccccc2C(=O)O)cc(C(F)(F)F)c1 [lw153] | – | – | 780 ± 250 | 73 ± 5
NC(=O)c1cc(Nc2ccccc2C(=O)O)cc(C(F)(F)F)c1 [lw154] | – | – | 7200 ± 1000 | 127 ± 13
O=C(O)c1ccccc1Nc1cc(N2CCOCC2)cc(C(F)(F)F)c1 [lw167] | – | – | 700 ± 400 | 41 ± 18
COC(=O)c1cc(Nc2ccccc2-c2nnn[nH]2)cc(C(F)(F)F)c1 [lw169] | – | – | 640 ± 140 | 97 ± 4
NC(=O)c1cc(Nc2ccccc2-c2nnn[nH]2)cc(C(F)(F)F)c1 [lw183] | – | – | 6000 ± 1300 | 86 ± 8
FC(F)(F)c1cc(Nc2ccccc2-c2nnn[nH]2)cc(OC2CC2)c1 [lw190] | – | – | 430 ± 75 | 68 ± 4
Cc1cc(Nc2ccccc2-c2nnn[nH]2)cc(C(F)(F)F)c1 [lw201] | – | – | 590 ± 250 | 81 ± 7
O=C(O)c1cc([N+](=O)[O-])ccc1Nc1cccc(C(F)(F)F)c1 [lw205] | – | – | 270 ± 75 | 82 ± 4
NC(=O)c1ccccc1Nc1cccc(C(F)(F)F)c1 [lw208] | – | – | 11000 ± 750 | 34 ± 4
O=Cc1ccc(Cl)cc1Nc1ccccc1C(=O)O [lw231] | – | – | 3300 ± 460 | 97 ± 7
COC(=O)c1cccc(C(=O)O)c1Nc1cccc(C(F)(F)F)c1 [lw253] | – | – | 480 ± 110 | 42 ± 4
O=C(O)c1ccccc1Nc1cc(C#CC2CC2)cc(C(F)(F)F)c1 [lw271] | – | – | 460 ± 79 | 57 ± 7

SMILES | IC50 (TAS2R14 [1]) [nM] | IC50 (TAS2R14 [2]) | EC50 (TAS2R14 [3]) [nM] | Emax (TAS2R14 [4]) [%]
CCCCc1cc2cccc(C(=O)O)c2n1-c1cccc(C(F)(F)F)c1 [lw273] | – | – | 8300 ± 2400 | 62 ± 6
Oc1cc(-c2ccccc2Nc2cccc(C(F)(F)F)c2)on1 [lw306] | – | – | 3100 ± 1800 | 38 ± 4
CCCCC#Cc1ccc(Nc2ccccc2C(=O)O)cc1C(F)(F)F [lw308] | – | – | 4400 ± 1600 | 87 ± 7
CC#Cc1ccc(Nc2ccccc2C(=O)O)cc1C(F)(F)F [lw310] | – | – | 380 ± 52 | 89 ± 3
CCCCCNC(=O)c1ccc(Nc2ccccc2C(=O)O)cc1C(F)(F)F [lw317] | – | – | 30000 ± 19000 | 66 ± 17
FC(F)(F)c1cc(-c2ccccc2)nc(Nc2ccccc2-c2nnn[nH]2)n1 [lw341] | – | – | 1100 ± 320 | 118 ± 16
COc1ccc(Nc2ccccc2C(=O)O)cc1OCc1ccc(Cl)cc1 [lwbk19] | – | – | 1200 ± 300 | 70 ± 11
COc1ccc(Nc2ccccc2C(=O)O)cc1OCc1cccc(F)c1 [lwbk20] | – | – | 1400 ± 500 | 89 ± 4
COc1cccc(COc2cc(Nc3ccccc3C(=O)O)ccc2OC)c1 [lwbk21] | – | – | 2100 ± 1100 | 88 ± 10
O=C(O)c1ccccc1Nc1cc(C(F)(F)F)cc(C(F)(F)F)c1Cl [lwjk05] | – | – | 150 ± 20 | 84 ± 1
FC(F)(F)c1cc(Nc2ccccc2-c2nnn[nH]2)c(Cl)c(C(F)(F)F)c1 [lwjk06] | – | – | 170 ± 20 | 97 ± 8
Cc1ccc(Nc2ccccc2C(=O)O)cc1OCc1ccc(Cl)cc1 [lwlb17] | – | – | 1300 ± 180 | 70 ± 10
COc1cccc(COc2cc(Nc3ccccc3C(=O)O)ccc2C)c1 [lwlb18] | – | – | 1500 ± 500 | 54 ± 14
Cc1ccc(Nc2ccccc2C(=O)O)cc1OCc1cccc(F)c1 [lwlb19] | – | – | 1900 ± 940 | 70 ± 6
O=C(O)c1ccccc1Nc1cccc(OCc2ccc(Cl)cc2)c1 [lwmr04] | – | – | 1100 ± 180 | 64 ± 2
COc1cccc(COc2cccc(Nc3ccccc3C(=O)O)c2)c1 [lwmr05] | – | – | 740 ± 120 | 70 ± 6
O=C(O)c1ccccc1Nc1cccc(OCc2cccc(F)c2)c1 [lwmr06] | – | – | 420 ± 50 | 71 ± 4
FC(F)(F)c1cccc(Nc2ccccc2-c2cnoc2)c1 [lwph005] | – | – | 12000 ± 8900 | 50 ± 1
FC(F)(F)c1cccc(Nc2ccccc2-c2cnn[nH]2)c1 [lwtp009] | – | – | 12000 ± 1400 | 48 ± 1
